Reference: the supplement of paper PMC10883282

Assays:
Assay in all cases: relative viability vs DMSO control (72 h) (fraction); higher = more viable cells
VA-ES-BJ = system: VA-ES-BJ
In short: (§1)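 After seeding at densities set for 80–90% confluence in 384-well plates, sarcoma cell lines waited 24 h before 2.5 µl of serially diluted compound was added. Source plates held 10 mM down to 0.0002 mM. Plates were incubated 72 h at 37 °C with 5% CO2, with 0.1% DMSO vehicle and a 5 µM positive control, and relative viability was taken from ATPLite as percent growth averaged over up to triplicate wells, with 1 set as full and 0 as none.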

SW982 = system: SW982
In short: as §1

SW684 = system: SW684
In short: as §1

G401 = system: G401
In short: as §1

A204 = system: A204
In short: as §1

KHOS-NP = system: KHOS-NP
In short: as §1

SK-ES-1 = system: SK-ES-1
In short: as §1

HS729 = system: HS729
In short: as §1

RD-ES = system: RD-ES
In short: as §1

SK-LMS-1 = system: SK-LMS-1
In short: as §1

HT1080 = system: HT1080
In short: as §1

SW872 = system: SW872
In short: as §1

O=C1CCc2c(Oc3ccc4c(c3)[C@@H]3[C@H](O4)[C@H]3c3nc4cc(C(F)(F)F)ccc4[nH]3)ccnc2N1 [Lifirafenib]
Settings | relative viability
A204, 0.00017 µM | 1.1
A204, 0.00051 µM | 1.12
A204, 0.00152 µM | 1.12
A204, 0.00457 µM | 1.104
A204, 0.01372 µM | 1.1
A204, 0.04115 µM | 1.11
A204, 0.1235 µM | 1.1
A204, 0.3704 µM | 0.781
A204, 1.111 µM | 0.49
A204, 3.333 µM | 0.38
A204, 10 µM | 0.317
G401, 0.00017 µM | 1.02
G401, 0.00051 µM | 1.03
G401, 0.00152 µM | 1.03
G401, 0.00457 µM | 1.02
G401, 0.01372 µM | 1.02
G401, 0.04115 µM | 1.03
G401, 0.1235 µM | 1.035
G401, 0.3704 µM | 1.01
G401, 1.111 µM | 0.957
G401, 3.333 µM | 0.787
G401, 10 µM | 0.625
HS729, 0.00017 µM | 0.947
HS729, 0.00051 µM | 0.921
HS729, 0.00152 µM | 0.926
HS729, 0.00457 µM | 0.937
HS729, 0.01372 µM | 0.886
HS729, 0.04115 µM | 0.907
HS729, 0.1235 µM | 0.871
HS729, 0.3704 µM | 0.852
HS729, 1.111 µM | 0.8769
HS729, 3.333 µM | 0.851
HS729, 10 µM | 0.817
HT1080, 0.00017 µM | 1.09
HT1080, 0.00051 µM | 1.05
HT1080, 0.00152 µM | 1.046
HT1080, 0.00457 µM | 1.08
HT1080, 0.01372 µM | 1.07
HT1080, 0.04115 µM | 1.11
HT1080, 0.1235 µM | 1.09
HT1080, 0.3704 µM | 1.09
HT1080, 1.111 µM | 1.04
HT1080, 3.333 µM | 0.9439
HT1080, 10 µM | 0.491
KHOS-NP, 0.00017 µM | 1.07
KHOS-NP, 0.00051 µM | 1.07
KHOS-NP, 0.00152 µM | 1.07
KHOS-NP, 0.00457 µM | 1.07
KHOS-NP, 0.01372 µM | 1.064
KHOS-NP, 0.04115 µM | 1.05
KHOS-NP, 0.1235 µM | 1.06
KHOS-NP, 0.3704 µM | 1.07
KHOS-NP, 1.111 µM | 0.8425
KHOS-NP, 3.333 µM | 0.433
KHOS-NP, 10 µM | 0.321
RD-ES, 0.00017 µM | 0.9742
RD-ES, 0.00051 µM | 0.997
RD-ES, 0.00152 µM | 0.98
RD-ES, 0.00457 µM | 0.991
RD-ES, 0.01372 µM | 1
RD-ES, 0.04115 µM | 0.981
RD-ES, 0.1235 µM | 0.992
RD-ES, 0.3704 µM | 1.04
RD-ES, 1.111 µM | 1.02
RD-ES, 3.333 µM | 0.954
RD-ES, 10 µM | 0.822
SK-ES-1, 0.00017 µM | 1.01
SK-ES-1, 0.00051 µM | 1.04
SK-ES-1, 0.00152 µM | 1.068
SK-ES-1, 0.00457 µM | 1.05
SK-ES-1, 0.01372 µM | 1.09
SK-ES-1, 0.04115 µM | 1.07
SK-ES-1, 0.1235 µM | 1.06
SK-ES-1, 0.3704 µM | 1.08
SK-ES-1, 1.111 µM | 1.04
SK-ES-1, 3.333 µM | 0.867
SK-ES-1, 10 µM | 0.572
SK-LMS-1, 0.00017 µM | 1.04
SK-LMS-1, 0.00051 µM | 1.06
SK-LMS-1, 0.00152 µM | 1.09
SK-LMS-1, 0.00457 µM | 1.08
SK-LMS-1, 0.01372 µM | 1.1
SK-LMS-1, 0.04115 µM | 1.11
SK-LMS-1, 0.1235 µM | 1.14
SK-LMS-1, 0.3704 µM | 1.1
SK-LMS-1, 1.111 µM | 0.876
SK-LMS-1, 3.333 µM | 0.6129
SK-LMS-1, 10 µM | 0.438
SW684, 0.00017 µM | 1.17
SW684, 0.00051 µM | 1.2
SW684, 0.00152 µM | 1.18
SW684, 0.00457 µM | 1.16
SW684, 0.01372 µM | 1.15
SW684, 0.04115 µM | 1.15
SW684, 0.1235 µM | 1.154
SW684, 0.3704 µM | 1.22
SW684, 1.111 µM | 1.32
SW684, 3.333 µM | 1.3
SW684, 10 µM | 0.936
SW872, 0.00017 µM | 0.974
SW872, 0.00051 µM | 0.998
SW872, 0.00152 µM | 1.01
SW872, 0.00457 µM | 1.03
SW872, 0.01372 µM | 1.03
SW872, 0.04115 µM | 0.98
SW872, 0.1235 µM | 0.941
SW872, 0.3704 µM | 0.735
SW872, 1.111 µM | 0.644
SW872, 3.333 µM | 0.644
SW872, 10 µM | 0.59
SW982, 0.00017 µM | 1.04
SW982, 0.00051 µM | 1.03
SW982, 0.00152 µM | 1.055
SW982, 0.00457 µM | 1.05
SW982, 0.01372 µM | 1.02
SW982, 0.04115 µM | 1.02
SW982, 0.1235 µM | 1.05
SW982, 0.3704 µM | 1.03
SW982, 1.111 µM | 0.897
SW982, 3.333 µM | 0.757
SW982, 10 µM | 0.556
VA-ES-BJ, 0.00017 µM | 1.037
VA-ES-BJ, 0.00051 µM | 1.039
VA-ES-BJ, 0.00152 µM | 1.046
VA-ES-BJ, 0.00457 µM | 1.03
VA-ES-BJ, 0.01372 µM | 1.03
VA-ES-BJ, 0.04115 µM | 1.04
VA-ES-BJ, 0.1235 µM | 1.09
VA-ES-BJ, 0.3704 µM | 1.108
VA-ES-BJ, 1.111 µM | 1.11
VA-ES-BJ, 3.333 µM | 1.09
VA-ES-BJ, 10 µM | 0.798
